Reference: US11242337B2, “Compounds useful for treating gastrointestinal tract disorders” (Ardelyx, Inc., priority 2017, dated 2022)
Read-outs that look alike come from different tables or passages of the source.

Legend:
[1] = tested on: human ileum monolayer culture; test: Sustained inhibition of apical acid secretion in human organoid monolayer cell cultures (ileum); assay type: cell-based; settings: Homo sapiens, 48 h; 1 μM apical, dosed day 6, apical media pH day 8, vs DMSO
Experimental: Basal media (BM) consisted of advanced DMEM/F12 containing 10 mM HEPES Invitrogen, 15630-080), 1:100 Glutamax (Invitrogen, 35050-061), and 1:100 penicillin/streptomycin (Invitrogen, 15140-122). Supplemented basal media (SBM) contained 1:100 N2 (Invitrogen, 17502-048), 1:50 B27 (Invitrogen, 12587-010), 1 mM N-acetylcysteine (Sigma, A9165), and 10 nM [Leu15]-gastrin I (Sigma, G9145). Growth factors used included 50 ng per mL mouse EGF (Peprotech, 315-09), 100 ng per mL mouse noggin (Peprotech, 250-38), 500 ng per mL human R-spondin 1 (R&D, 4645-RS), 100 ng per mL mouse Wnt-3a (R&D, 1324-WN), 20 μM. Y-27632 (Tocris, 1254), 10 mM nicotinamide (Sigma, N0636), 500 nM A83-01 (Tocris, 2939), 10 μM SB202190 (Tocris, 1264). Transwells were 0.4 μm pore polyester membrane 24-well Transwell inserts (Corning). Cultures were incubated at 37° C. in 5% CO2.
Human ileum organoids were cultured in WENRNAS (Wnt, EGF, noggin, R-spondin1, Nicotinamide, A83-01, SB202190) and typically grown for 7-12 days before being used to plate monolayer cultures. On day 0, organoid cultures embedded in Matrigel were treated with TrypLE Express to break organoids into small pieces and/or single cells. The cells were resuspended to 0.5×10^6 cells/mL in SBM containing WENRAY (Wnt, EGF, noggin, R-spondin1, A83-01, Y-27632). Following this step, 200 μL of cell suspension was plated into the apical side of a 24-well Transwell (100,000 cells/well) and 600 μL of SBM with WENRAY was added to the basolateral side. Ileum cells were differentiated with ENRA (EGF, noggin, R-spondin 1, A83-01) on day 3. The color of apical compartment turns from pink or orange to yellow due to the increase in NHE3 expression after differentiation.
Each human ileum monolayer culture well was washed twice with fresh SBM on the apical side on day 6 before compound dosing. All compound stocks were 10 mM dissolved in DMSO. Each compound stock was individually mixed with fresh SBM to reach final compound concentration 1 μM and dosed only on the apical side of the monolayer (total volume 200 μl). DMSO at the equivalent concentration was used as the vehicle control. Duplicate wells were dosed for each compound. On day 8, apical media pH was measured by pH electrode, to determine the ability of example compounds to produce sustained inhibition of NHE3 activity in a human monolayer culture system by preventing proton secretion into the apical compartment.

[2] = tested on: absorption of sodium from the intestinal lumen; test: Inhibition of intestinal sodium absorption in mice; assay type: in vivo; settings: CD-1 mice, 15 mg/kg oral gavage twice daily; for Fecal fluid content (Δ from vehicle): day 3, change from vehicle group mean; for response vs control in vivo at 15 mg/kg: Mus musculus, 72 h, day 3, normalized to dietary sodium intake
Experimental: Urinary and fecal sodium excretions were measured to assess the ability of selected example compounds to inhibit the absorption of sodium from the intestinal lumen. In addition, an assessment of the absence or presence of diarrhea in response to compound treatment was made. Approximately eight-week old, male, CD-1 mice were purchased from Envigo (Livermore, Calif.), were housed 6 per cage and acclimated for at least 48 hours before study initiation. Animals were fed Harlan Teklad Global TD.160470 rodent chow (Madison, Wis.), standard laboratory rodent chow Harlan Teklad Global 2018 with the addition of 0.4% inorganic phosphorous. […] To initiate the study, mice were weighed and then individually placed in metabolic cages. Following a 3-day acclimation period to the metabolic cage, a 24-hr baseline collection of urine and feces was performed. […] Each day, measurements of body weight. 24-hour food intake, water intake, urine volume and wet fecal weight were recorded, along with any observation of diarrhea. Fecal samples were dried using a lyophilizer for at least 3 days, following which dry weight was recorded and fecal fluid content was calculated based on the difference between the wet and dry stool weights. Fecal fluid content on day 3 of compound treatment was calculated as a change from the vehicle group mean. For urine samples, the volumes were determined gravimetrically. Feces and urine were analyzed for sodium content by microwave plasma-atomic emission spectroscopy or ion chromatography, respectively. Urine samples were analyzed on an ion chromatography system (Thermo Fisher ICS-3000 or ICS-5000+) coupled with conductivity detectors. Chromatographic separation of cations was performed using an IonPac CS12A (Thermo Fisher) 2×250 mm analytical column with an isocratic elution using […] methanesulfonic acid. Concentrations were interpolated from a a standard curve (prepared in 10 mM HCl) for sodium ion based on retention time and peak area. Fecal sample analysis by Microwave Plasma Atomic Emission Spectrometry (MP-AES). Dry fecal samples were ground into a fine powder on a homogenizer and the ground samples (400-600 mg aliquots weighed) were digested with nitric acid by microwave method (Mars 6). These digested samples were diluted with 1% Nitric acid and analyzed on Agilent 4100 MP-AES. Concentrations were calculated relative to a standard curve (prepared in 1% Nitric acid) for sodium based on the signal intensity. Sodium was detected at a wavelength of 588.995 nm. Twenty-four-hour urinary sodium excretion (ma/24-hours) was calculated by multiplying urinary sodium concentration by 24-hour urine volume. Twenty-four-hour fecal sodium excretion (mg/24-hours) was calculated by multiplying fecal sodium concentration by 24-hour dry fecal weight. The urinary and fecal sodium excretion on day 3 of compound treatment were normalized to dietary sodium intake and expressed as a percentage of the vehicle mean.

[3] = read-out: Fecal Na Excretion (% of vehicle)
[4] = read-out: Urinary Na Excretion (% of vehicle)

| SMILES | inhibition at 1 µM [1] | Fecal fluid content (Δ from vehicle) [2] | response vs control in vivo at 15 mg/kg [2, 3] | response vs control in vivo at 15 mg/kg [2, 4] |
| --- | --- | --- | --- | --- |
| O=C(NCCCCNC(=O)NCCOCCN1CC[C@H](NS(=O)(=O)c2ccc(O[C@H]3c4cc(Cl)cc(Cl)c4C[C@@H]3N3CCNCC3)c(F)c2)C1)NCCOCCN1CC[C@H](NS(=O)(=O)c2ccc(O[C@H]3c4cc(Cl)cc(Cl)c4C[C@@H]3N3CCNCC3)c(F)c2)C1 [Example 106, 4-([(1S,2S)-4,6-Dichloro-2-(piperazin-1-yl)-2,3-dihydro-1H-inden-1-yl]oxy)-N—[(S)-1-(20-[(S)-3-([4-([(1S,2S)-4,6-dichloro-2-(piperazin-1-yl)-2,3-dihydro-1H-inden-1-yl]oxy)-3-fluorophenyl]sulfonamido)pyrrolidin-1-yl]-7,14-dioxo-3,18-dioxa-6,8,13,15-tetraazaicosyl)pyrrolidin-3-yl]-3-fluorobenzenesulfonamide; tetra(trifluoroacetate)] | > 70% |  |  |  |
| CN(C)[C@H]1CCCN([C@H]2Cc3c(C#N)cc(Cl)cc3[C@@H]2Oc2ccc(S(=O)(=O)NCCOCCOCCNC(=O)NCCCCNC(=O)NCCOCCOCCNS(=O)(=O)c3ccc(O[C@H]4c5cc(Cl)cc(C#N)c5C[C@@H]4N4CCC[C@H](N(C)C)C4)cc3)cc2)C1 [Example 122, 4-([(1S,2S)-6-Chloro-4-cyano-2-[(S)-3-(dimethylamino)piperidin-1-yl]-2,3-dihydro-1H-inden-1-yl]oxy)-N-[26-([4-([(1S,2S)-6-chloro-4-cyano-2-[(S)-3-(dimethylamino)piperidin-1-yl]-2,3-dihydro-1H-inden-1-yl]oxy)phenyl]sulfonamido)-10,17-dioxo-3,6,21,24-tetraoxa-9,11,16,18-tetraazahexacosyl]benzenesulfonamide] | > 70% |  |  |  |
| N#Cc1cc(Cl)cc2c1C[C@H](N1CCNCC1)[C@H]2Oc1ccc(S(=O)(=O)NC2CCN(C(=O)CCCNC(=O)NCCCCNC(=O)NCCCC(=O)N3CCC(NS(=O)(=O)c4ccc(O[C@H]5c6cc(Cl)cc(C#N)c6C[C@@H]5N5CCNCC5)cc4)CC3)CC2)cc1 [Example 115] | > 70% |  |  |  |
| N#Cc1cc(Cl)cc2c1C[C@H](N1CCNCC1)[C@H]2Oc1ccc(S(=O)(=O)NC2CCN(CCOCCNC(=O)NCCCCNC(=O)NCCOCCN3CCC(NS(=O)(=O)c4ccc(O[C@H]5c6cc(Cl)cc(C#N)c6C[C@@H]5N5CCNCC5)cc4)CC3)CC2)cc1 [Example 123, 4-([(1S,2S)-6-Chloro-4-cyano-2-(piperazin-1-yl)-2,3-dihydro-1H-inden-1-yl]oxy)-N-[1-(20-[4-([4-([(1S,2S)-6-chloro-4-cyano-2-(piperazin-1-yl)-2,3-dihydro-1H-inden-1-yl]oxy)phenyl]sulfonamide]piperidin-1-yl)-7,14-dioxo-3,18-dioxa-6,8,13,15-tetraazaicosyl]piperidin-4-yl)benzenesulfonamide] | > 70% |  |  |  |
| Cc1cc(Cl)cc2c1C[C@H](N1CCC[C@@H](N(C)C)C1)[C@H]2Oc1ccc(S(=O)(=O)NCCOCCOCCNC(=O)NCCCCNC(=O)NCCOCCOCCNS(=O)(=O)c2ccc(O[C@H]3c4cc(Cl)cc(C)c4C[C@@H]3N3CCC[C@@H](N(C)C)C3)c(F)c2)cc1F [Example 30, 3-[2-(2-[2-[(4-[[(1S,2S)-6-Chloro-2-[(3R)-3-(dimethylamino)piperidin-1-yl]-4-methyl-2,3-dihydro-1H-inden-1-yl]oxy]-3-fluorobenzene)sulfonamido]ethoxy]ethoxy)ethyl]-1-[4-([[2-(2-[2-[(4-[[(1S,2S)-6-chloro-2-[(3R)-3-(dimethylamino)piperidin-1-yl]-4-methyl-2,3-dihydro-1H-inden-1-yl]oxy]-3-fluorobenzene)sulfonamido]ethoxy]ethoxy)ethyl]carbamoyl]amino)butyl]urea; bis(trifluoroacetic acid)] |  | C (>10) | > 200% | 50 to 70% |
| O=C(NCCCCNC(=O)NCCOCCN1CC[C@@H](NS(=O)(=O)c2ccc(O[C@H]3c4cc(Cl)cc(Cl)c4C[C@@H]3N3CCNCC3)c(F)c2)C1)NCCOCCN1CC[C@@H](NS(=O)(=O)c2ccc(O[C@H]3c4cc(Cl)cc(Cl)c4C[C@@H]3N3CCNCC3)c(F)c2)C1 [Example 105, 4-([(1S,2S)-4,6-Dichloro-2-(piperazin-1-yl)-2,3-dihydro-1H-inden-1-yl]oxy)-N—[(R)-1-(20-[(R)-3-([4-([(1S2S)-4,6-dichloro-2-(piperazin-1-yl)-2,3-dihydro-1H-inden-1-yl]oxy)-3-fluorophenyl]sulfonamido)pyrrolidin-1-yl]-7,14-dioxo-3,18-dioxa-6,8,13,15-tetraazaicosyl)pyrrolidin-3-yl]-3-fluorobenzenesulfonamide; tetra(trifluoroacetate)] | > 70% |  |  |  |
| Cc1cc(O[C@H]2c3cc(Cl)cc(Cl)c3C[C@@H]2N(C)C)c(F)cc1S(=O)(=O)NCCOCCOCCNC(=O)NCCCCNC(=O)NCCOCCOCCNS(=O)(=O)c1cc(F)c(O[C@H]2c3cc(Cl)cc(Cl)c3C[C@@H]2N(C)C)cc1C [Example 88, 3-[2-(2-[2-[(4-[[(1S,2S)-4,6-Dichloro-2-(dimethylamino)-2,3-dihydro-1H-inden-1-yl]oxy]-5-fluoro-2-methylbenzene)sulfonamido]ethoxy]ethoxy)ethyl]-1-[4-([[2-(2-[2-[(4-[[(1S,2S)-4,6-dichloro-2-(dimethylamino)-2,3-dihydro-1H-inden-1-yl]oxy]-5-fluoro-2-methylbenzene)sulfonamido]ethoxy]ethoxy)ethyl]carbamoyl]amino)butyl]urea] |  | B (5-10) | 150 to 200% | 50 to 70% |
| Cc1cc(S(=O)(=O)N[C@@H]2CCN(CCOCCNC(=O)NCCCCNC(=O)NCCOCCN3CC[C@@H](NS(=O)(=O)c4ccc(O[C@H]5c6cc(Cl)cc(Cl)c6C[C@@H]5N(C)C)c(C)c4)C3)C2)ccc1O[C@H]1c2cc(Cl)cc(Cl)c2C[C@@H]1N(C)C [Example 53, 3-(2-[2-[(3R)-3-[(4-[[(1S,2S)-4,6-Dichloro-2-(dimethylamino)-2,3-dihydro-1H-inden-1-yl]oxy]-3-methylbenzene)sulfonamido]pyrrolidin-1 yl]ethoxy]ethyl)-1-(4-[[(2-[2-[(3R)-3-[(4-[[(1S,2S)-4,6-dichloro-2-(dimethylamino)-2,3-dihydro-1H-inden-1-yl]oxy]-3-methylbenzene)sulfonamido]pyrrolidin-1-yl]ethoxy]ethyl)carbamoyl]amino]butyl)urea] |  | B (5-10) | < 150% | > 70% |
